Source: publication PMC6208323 (Cell chemical biology, 2018)
Where two headings read alike, the source gives them in different places.

Columns and labels:
[1] = target: TnmS1 (Streptomyces sp. CB03234, UniProt A0A125SA24); test: fluorescence quenching; type: binding
[2] = target: TnmS3 (Streptomyces sp. CB03234, UniProt A0A125SA29); test: fluorescence quenching; type: binding
[3] = target: TnmS2 (Streptomyces sp. CB03234, UniProt A0A125SA26); test: fluorescence quenching; type: binding
[4] = target: TnmS2 (Streptomyces sp. CB03234); test: SEC
[5] = target: TnmS1 (Streptomyces sp. CB03234); test: SEC
[6] = target: TnmS3 (Streptomyces sp. CB03234); test: SEC
[7] = target: (UniProt S2XVS8); test: fluorescence quenching; type: binding, Streptomyces sp. HGB0020
Chain of (UniProt S2XVS8) (S2XVS8 1-128): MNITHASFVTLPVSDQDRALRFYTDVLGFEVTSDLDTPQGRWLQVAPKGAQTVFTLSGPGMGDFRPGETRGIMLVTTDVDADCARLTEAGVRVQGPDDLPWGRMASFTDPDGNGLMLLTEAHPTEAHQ

[8] = target: CBFG_04671 (Clostridium pacaense, UniProt A0ABV1D2N3); test: fluorescence quenching; type: binding
[9] = 20 mM MOPS pH 7.0, 28 °C, 2 μM protein, ligand in DMSO

Compound: Cc1cc2nc3c(=O)[nH]c(=O)nc-3n(C[C@H](O)[C@H](O)[C@H](O)CO)c2cc1C [riboflavin]
- Kd [1]: 84100 nM
- Kd [2]: 1100 nM
- Kd [3]: 59500 nM

Compound: TNM C
- Kd [1, 9]: 350 ± 41 nM
- Kd [2, 9]: 215 ± 27 nM
- Kd [3, 9]: 361 ± 65 nM

Compound: TnmS2 (natural protein)
- stoichiometry N [4]: 2

Compound: TnmS1 (natural protein)
- stoichiometry N [5]: 2

Compound: TnmS3 (natural protein)
- stoichiometry N [6]: 2

Compound: COc1ccc2c(c1O)C(=O)c1c3c(cc(O)c1C2=O)[C@@]12O[C@@]1([C@@H](C)O)[C@H](C#C/C=C\C#C[C@H]2O)N3 [TNM A]
- Kd [1]: 163 ± 17 nM
- Kd [7]: 164 ± 23 nM
- Kd [2]: 108 ± 13 nM
- Kd [8]: 855 ± 66 nM
- Kd [3]: 246 ± 36 nM
